# Like-named read-outs stand apart in the source and are kept apart here.
# Experiments:
# GSPT1 = GSPT1 (Homo sapiens, UniProt P15170+Q96SW2); assay: Immunofluorescence assay for GSPT1 degradation in CAL-Si cells; format: cell-based; parameters: CAL-Si cells were purchased from DSMZ (cat. Number ACC302); host or cells: CAL-Si (CAL-51) cells; conditions: 6 hours treatment
# Description: The representative compounds were tested in an immunofluorescence assay for their activity to bind to degrade GSPT1. CAL-Si cells were purchased from DSMZ (cat. Number ACC302), sub-cultured in 90% Dulbecco's MEM (4.5 g/L glucose, Gibco 11965)+10% […] inactivated FBS (BioConcept, 2-01F136I) and incubated at 37° C., 5% CO2. For the assay, imaging microtiterplate Cell Carrier 96 Ultra (Perkin Elmer 6055302) were pre-coated with Fibronectin (Sigma F085, 30 μl at 0.2 μg/ml) in PBS (100 μl, Gibco 14190) for 45 min at room temperature, rinsed with PBS and CAL-Si cells (30K cells/well) were plated and let to adhere overnight. Cells were treated with compounds typically using a serial dilution ranging from 30 μM to 0.1 nM for 6 hours. Compounds were stored at 10 mM DMSO stocks. Vehicle (DMSO), positive (CC-885, 10 μM) and rescue controls (positive control plus 0.2 μM bortezomib) were also included at this stage. Cells were subsequently rinsed with PBS and fixed in 10% Formalin solution (50 μl, Sigma HT5011)) for 20 mins at room temperature. Following three consecutive PBS washes (100 μl), cells were permeabilized in 0.1% Triton X-100 in PBS (Sigma 93443, 50 μl) for 15 mins at room temperature. Following three further PBS washes, […] blocking buffer (1% BSA, Sigma A4503, in PBS) was added for 45 min for signal-to-noise reduction.
# Primary antibody (human GSPT1, Sigma HPA052488) was diluted in blocking buffer (dil.1/300, 35 μl/well) and incubated with the cells overnight at 4° C. After three PBS washes, Alexa-fluor 488 coupled secondary antibodies (Invitrogen, A32731, dil.1/1000), Alexa-fluor 647-Phalloidin (Invitrogen, A22287, dil.1/200) and DAPI (Thermo, #62248, dil.1/1000) were diluted in blocking buffer and incubated with the samples for 2 hours at room temperature. After three final PBS washes, samples were conserved in […] PBS in the dark, until measurement. Image acquisition was performed on the Operetta High-Content Imager (Perkin-Elmer). Fluorescence intensity of Alexa-Fluor 488 (GSPT1), Alexa-Fluor 647 (Actin) and DAPI (Nucleus) were measured. For the determination of GSPT1 DC50 values, a custom algorithm implemented in the PerkinElmer image analysis software Harmony-Acapella® was developed. After user-defined setting of adjustment parameters, the analysis was run identically without human intervention for all image fields. DAPI staining of the nuclei was used to determine the location of cells using standard nuclei detection modules. Segmentation artifacts were removed by threshold-based filters for area, roundness and intensity. The outline of the cells was determined analogously from the sum of the normalized, smoothed DAPI and Actin channel, starting from each nucleus.
# The Alexa-Fluor 488 (GSPT1) signal intensity in each cell was finally measured, in order to obtain a Mean intensity per cell. GSPT1 degradation (DC50) was calculated after normalization to controls and data import in CDD vault Database, using non-linear regression.
# [1] = target: T1, Full length wild-type cereblon CRBN (Homo sapiens, UniProt Q96SW2); assay: Fluorescence polarization (FP) assay indicating cereblon binding
# T1 construct: Full length wild-type cereblon CRBN (80.0 nM, 10 μL) was incubated in assay buffer
# T1 sequence (Q96SW2 whole entry): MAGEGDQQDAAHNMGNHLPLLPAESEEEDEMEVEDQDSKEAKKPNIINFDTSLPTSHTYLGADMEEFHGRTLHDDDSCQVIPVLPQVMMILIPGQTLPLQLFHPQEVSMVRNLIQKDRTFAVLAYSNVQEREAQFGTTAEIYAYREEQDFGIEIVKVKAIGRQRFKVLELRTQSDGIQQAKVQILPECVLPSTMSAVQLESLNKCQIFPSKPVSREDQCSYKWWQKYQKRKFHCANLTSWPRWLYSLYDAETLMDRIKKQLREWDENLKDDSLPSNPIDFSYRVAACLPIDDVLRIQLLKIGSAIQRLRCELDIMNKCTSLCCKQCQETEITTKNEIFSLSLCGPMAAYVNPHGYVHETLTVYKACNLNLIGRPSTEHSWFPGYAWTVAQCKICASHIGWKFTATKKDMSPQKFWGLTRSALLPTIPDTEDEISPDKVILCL
# Excerpt: Protocol for Fluorescent Polarization Assay
# Compound activity was monitored in a fluorescence polarization (FP) homogeneous assay using 1-[5-({2-[2-(2-{[2-(2,6-dioxopiperidin-3-yl)-1,3-dioxo-2,3-dihydro-1H-isoindol-4-yl]oxy}acetamido)ethoxy]ethyl}carbamoyl)pentyl]-3,3-dimethyl-2-[(1E,3E)-5-[(2E)-1,3,3-trimethyl-5-sulfo-2,3-dihydro-1H-indol-2-ylidene]penta-1,3-dien-1-yl]-3H-indol-1-ium-5-sulfonate as a fluorescent probe. Unless otherwise stated, all reagents were purchased from Sigma Aldrich. Enzymatic reactions were conducted in Perkin-Elmer Black 384 well ProxiPlate Plus (catalogue no. 6008269) in 10 μL total volume. Full length wild-type cereblon CRBN (80.0 nM, 10 μL) was incubated in assay buffer containing 20 mM HEPES (pH 8.0), […], 0.5 mM TCEP and 0.05% Tween 20 in the presence or absence of compound (300 nL). Inhibitors were stored as 10 mM DMSO stocks in an inert environment (low humidity, dark, low oxygen, room temperature) using the Storage Pod System. Compounds and DMSO were dispensed using the Echo E5XX (Labcyte Inc. USA) to give concentrations from 300 to 0.937 or 3000 to 9.3 nM in a 12 data point curve. […] Following incubation at room temperature for 30 min, the assay was initiated by dispensing the probe to a final concentration of 5 nM (2.5 nL of a 20 μM stock) using the Echo E5XX. FP was measured after a period of 12 hours using a Pherastar plate reader (BMG Labtech, Germany) exciting at 590 nm and measuring the amount of parallel and perpendicular light at 675 nm. The FP signal was subsequently normalized to the no-compound control (i.e., DMSO). Analysis and IC50 values were derived using Dotmatics (Dotmatics UK) software.
# [2] = read-out: Code: activity for GSPT1 degradation (DC50)
# [3] = cereblon binding, CRBN 80.0 nM, probe 5 nM, FP read after 12 hours, read-out: rFP IC50
# [4] = fluorescence polarization assay, read-out: IC50 value (cereblon binding)
# [5] = GSPT1 degradation, read-out: DC50
# Sequence of GSPT1 (P15170 whole entry): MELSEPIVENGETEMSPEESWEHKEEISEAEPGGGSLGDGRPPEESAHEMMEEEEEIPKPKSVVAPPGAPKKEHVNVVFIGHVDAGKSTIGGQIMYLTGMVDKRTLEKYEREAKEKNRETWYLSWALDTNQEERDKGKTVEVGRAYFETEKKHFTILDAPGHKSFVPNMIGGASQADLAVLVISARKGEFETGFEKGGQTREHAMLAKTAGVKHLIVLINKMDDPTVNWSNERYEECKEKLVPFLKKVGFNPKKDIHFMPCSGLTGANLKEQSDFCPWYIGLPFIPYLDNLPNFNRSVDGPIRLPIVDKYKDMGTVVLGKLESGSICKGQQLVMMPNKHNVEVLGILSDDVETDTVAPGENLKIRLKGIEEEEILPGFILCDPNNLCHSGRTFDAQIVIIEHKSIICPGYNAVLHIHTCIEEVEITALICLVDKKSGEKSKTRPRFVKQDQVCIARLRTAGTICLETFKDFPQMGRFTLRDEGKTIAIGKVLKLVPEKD
# Sequence of GSPT1 (Q96SW2 whole entry): as the sequence (Q96SW2 whole entry) above
# Sequence of GSPT1 (Q16531 whole entry partner): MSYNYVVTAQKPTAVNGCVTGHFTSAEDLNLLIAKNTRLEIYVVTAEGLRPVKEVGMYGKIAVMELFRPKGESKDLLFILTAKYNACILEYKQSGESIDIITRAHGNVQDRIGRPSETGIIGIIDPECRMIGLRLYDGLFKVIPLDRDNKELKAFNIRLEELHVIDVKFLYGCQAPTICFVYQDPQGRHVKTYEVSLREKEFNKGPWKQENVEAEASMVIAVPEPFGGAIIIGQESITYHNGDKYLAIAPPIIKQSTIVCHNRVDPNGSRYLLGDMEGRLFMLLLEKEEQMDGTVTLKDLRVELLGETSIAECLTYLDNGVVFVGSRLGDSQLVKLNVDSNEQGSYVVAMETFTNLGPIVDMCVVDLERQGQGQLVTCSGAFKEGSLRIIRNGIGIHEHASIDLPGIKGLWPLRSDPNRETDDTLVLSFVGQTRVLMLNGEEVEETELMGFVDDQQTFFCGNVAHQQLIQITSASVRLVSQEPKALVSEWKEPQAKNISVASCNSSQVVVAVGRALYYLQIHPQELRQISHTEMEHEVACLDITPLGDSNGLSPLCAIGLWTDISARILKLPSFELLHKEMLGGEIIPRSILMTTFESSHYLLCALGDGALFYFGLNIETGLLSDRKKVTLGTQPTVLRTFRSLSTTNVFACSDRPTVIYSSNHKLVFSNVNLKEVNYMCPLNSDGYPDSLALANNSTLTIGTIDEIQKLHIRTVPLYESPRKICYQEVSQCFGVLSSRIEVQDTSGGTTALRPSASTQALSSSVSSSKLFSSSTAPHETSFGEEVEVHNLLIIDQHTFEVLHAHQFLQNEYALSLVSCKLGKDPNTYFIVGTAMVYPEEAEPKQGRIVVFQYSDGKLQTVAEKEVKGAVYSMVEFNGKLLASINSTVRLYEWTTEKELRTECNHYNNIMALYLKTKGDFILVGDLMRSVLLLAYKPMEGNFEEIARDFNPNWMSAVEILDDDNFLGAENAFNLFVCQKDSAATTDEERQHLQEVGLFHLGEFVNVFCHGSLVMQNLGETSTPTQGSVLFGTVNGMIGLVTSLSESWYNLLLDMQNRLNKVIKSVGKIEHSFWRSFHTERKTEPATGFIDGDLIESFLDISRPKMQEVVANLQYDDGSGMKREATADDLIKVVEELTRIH
DC50 (GSPT1; [2]),"IC50 [1, 3]","IC50 [1, 4]",DC50 (GSPT1; [5]),SMILES
> 0.3 µM,> 1.7 µM,,,O=C1CCC(N2Cc3ccc(CCC(=O)Nc4cc(F)cc(Cl)c4)cc3C2=O)C(=O)N1 (stereo not drawn) [Compound 18]
> 0.3 µM,0.5 to 1.1 µM,< 1.1 µM,,O=C1CCC(N2Cc3ccc(CCC(=O)Nc4cc(Cl)cc(OC5CCNC5)c4)cc3C2=O)C(=O)N1 (stereo not drawn) [Compound 19]
0.03 to 0.3 µM,0.5 to 1.1 µM,< 1.1 µM,,O=C1CCC(N2Cc3ccc(CCC(=O)Nc4ccc(N5CCCCC5)nc4)cc3C2=O)C(=O)N1 (stereo not drawn) [Compound 20]
> 0.3 µM,> 1.7 µM,,,O=C1CCC(N2Cc3ccc(CCC(=O)N4CCC(Oc5ccccc5)C4)cc3C2=O)C(=O)N1 (stereo not drawn) [Compound 21]
0.03 to 0.3 µM,0.5 to 1.1 µM,< 1.1 µM,,Cc1c(Cl)cc(NC(=O)CCc2ccc3c(c2)C(=O)N(C2CCC(=O)NC2=O)C3)cc1CN1CC2CC1CO2 (stereo not drawn) [Compound 22]
≤ 0.03 µM,> 1.7 µM,,0.027 µM,O=C1CCC(N2Cc3ccc(CCC(=O)Nc4cc(Cl)cc(OC(F)F)c4)cc3C2=O)C(=O)N1 (stereo not drawn) [Compound 23]
0.03 to 0.3 µM,1.1 to 1.7 µM,,,Cc1c(Cl)cc(NC(=O)CCc2ccc3c(c2)C(=O)N(C2CCC(=O)NC2=O)C3)cc1CN1CC2CCC(C1)O2 (stereo not drawn) [Compound 24]
> 0.3 µM,0.5 to 1.1 µM,< 1.1 µM,,O=C1CCC(N2Cc3ccc(CCC(=O)Nc4cc(Cl)cc(OCC5CCNC5)c4)cc3C2=O)C(=O)N1 (stereo not drawn) [Compound 25]
> 0.3 µM,0.5 to 1.1 µM,< 1.1 µM,,O=C1CCC(N2Cc3ccc(CCC(=O)Nc4ccc5c(c4)OCC5)cc3C2=O)C(=O)N1 (stereo not drawn) [Compound 26]
> 0.3 µM,> 1.7 µM,,,O=C1CCC(N2Cc3ccc(CCC(=O)N4CCN(c5ccccc5)CC4)cc3C2=O)C(=O)N1 (stereo not drawn) [Compound 27]
0.03 to 0.3 µM,0.5 to 1.1 µM,< 1.1 µM,,O=C1CCC(N2Cc3ccc(CCC(=O)Nc4cc(F)cc(OC(F)F)c4)cc3C2=O)C(=O)N1 (stereo not drawn) [Compound 28]
≤ 0.03 µM,1.1 to 1.7 µM,,0.006 µM,Cc1ccc(NC(=O)CCc2ccc3c(c2)C(=O)N(C2CCC(=O)NC2=O)C3)cc1OC(F)F (stereo not drawn) [Compound 29]
0.03 to 0.3 µM,0.5 to 1.1 µM,< 1.1 µM,,O=C1CCC(N2Cc3ccc(CCC(=O)Nc4ccc(F)c(OC(F)F)c4)cc3C2=O)C(=O)N1 (stereo not drawn) [Compound 30]
0.03 to 0.3 µM,0.5 to 1.1 µM,< 1.1 µM,,CN1CCC(Oc2cc(Cl)cc(NC(=O)CCc3ccc4c(c3)C(=O)N(C3CCC(=O)NC3=O)C4)c2)C1 (stereo not drawn) [Compound 31]
0.03 to 0.3 µM,0.5 to 1.1 µM,< 1.1 µM,,CCOc1cc(NC(=O)CCc2ccc3c(c2)C(=O)N(C2CCC(=O)NC2=O)C3)ccc1C (stereo not drawn) [Compound 32]
0.03 to 0.3 µM,0.5 to 1.1 µM,< 1.1 µM,,COc1cc(NC(=O)CCc2ccc3c(c2)C(=O)N(C2CCC(=O)NC2=O)C3)ccc1C (stereo not drawn) [Compound 33]
≤ 0.03 µM,≤ 0.5 µM,< 1.1 µM,0.013 µM,O=C1CCC(N2Cc3ccc(CCC(=O)Nc4ccc(-c5ccccc5)nc4)cc3C2=O)C(=O)N1 (stereo not drawn) [Compound 34]
≤ 0.03 µM,0.5 to 1.1 µM,< 1.1 µM,0.012 µM,Cc1c(CN2CCOCC2)cc(NC(=O)CCc2ccc3c(c2)C(=O)N(C2CCC(=O)NC2=O)C3)cc1OC(F)F (stereo not drawn) [Compound 35]
> 0.3 µM,1.1 to 1.7 µM,,,COc1cc(NC(=O)CCc2ccc3c(c2)C(=O)N(C2CCC(=O)NC2=O)C3)cnc1C (stereo not drawn) [Compound 36]
> 0.3 µM,0.5 to 1.1 µM,< 1.1 µM,,CN1CCC(COc2cc(Cl)cc(NC(=O)CCc3ccc4c(c3)C(=O)N(C3CCC(=O)NC3=O)C4)c2)C1 (stereo not drawn) [Compound 37]
> 0.3 µM,≤ 0.5 µM,< 1.1 µM,,O=C1CCC(N2Cc3ccc(CCC(=O)Nc4ccc(C5CC5)cc4)cc3C2=O)C(=O)N1 (stereo not drawn) [Compound 38]

# Continued, compound first:
SMILES,DC50 (GSPT1; [2]),"IC50 [1, 3]","IC50 [1, 4]",DC50 (GSPT1; [5])
Cc1ncc(NC(=O)CCc2ccc3c(c2)C(=O)N(C2CCC(=O)NC2=O)C3)cc1Cl (stereo not drawn) [Compound 3],0.03 to 0.3 µM,≤ 0.5 µM,< 1.1 µM,
O=C1CCC(N2Cc3ccc(CCC(=O)NC4CCCCC4)cc3C2=O)C(=O)N1 (stereo not drawn) [Compound 4],> 0.3 µM,0.5 to 1.1 µM,< 1.1 µM,
O=C1CCC(N2Cc3ccc(CCC(=O)Nc4cccc(OC(F)(F)F)c4)cc3C2=O)C(=O)N1 (stereo not drawn) [Compound 5],0.03 to 0.3 µM,1.1 to 1.7 µM,,
CC(C)CCNC(=O)CCc1ccc2c(c1)C(=O)N(C1CCC(=O)NC1=O)C2 (stereo not drawn) [Compound 6],> 0.3 µM,> 1.7 µM,,
Cc1cc(C)cc(NC(=O)CCc2ccc3c(c2)C(=O)N(C2CCC(=O)NC2=O)C3)c1 (stereo not drawn) [Compound 7],≤ 0.03 µM,0.5 to 1.1 µM,< 1.1 µM,0.025 µM
O=C1CCC(N2Cc3ccc(CCC(=O)Nc4ccc(F)c(Cl)c4)cc3C2=O)C(=O)N1 (stereo not drawn) [Compound 8],0.03 to 0.3 µM,0.5 to 1.1 µM,< 1.1 µM,
O=C(CCc1ccc2c(c1)C(=O)N(C1CCC(=O)NC1=O)C2)NCC1CC1 (stereo not drawn) [Compound 9],> 0.3 µM,0.5 to 1.1 µM,< 1.1 µM,
COc1cc(C)c(Cl)cc1NC(=O)CCc1ccc2c(c1)C(=O)N(C1CCC(=O)NC1=O)C2 (stereo not drawn) [Compound 10],> 0.3 µM,0.5 to 1.1 µM,< 1.1 µM,
O=C1CCC(N2Cc3ccc(CCC(=O)Nc4cc(Cl)cc(OC(F)(F)F)c4)cc3C2=O)C(=O)N1 (stereo not drawn) [Compound 11],≤ 0.03 µM,> 1.7 µM,,0.017 µM
O=C1CCC(N2Cc3ccc(CCC(=O)NC4CCN(c5ccccn5)CC4)cc3C2=O)C(=O)N1 (stereo not drawn) [Compound 12],> 0.3 µM,0.5 to 1.1 µM,< 1.1 µM,
O=C1CCC(N2Cc3ccc(CCC(=O)N4CCCCC4)cc3C2=O)C(=O)N1 (stereo not drawn) [Compound 13],> 0.3 µM,> 1.7 µM,,
COc1ccc(Cl)cc1NC(=O)CCc1ccc2c(c1)C(=O)N(C1CCC(=O)NC1=O)C2 (stereo not drawn) [Compound 14],> 0.3 µM,0.5 to 1.1 µM,< 1.1 µM,
O=C1CCC(N2Cc3ccc(CCC(=O)N4CCCC4)cc3C2=O)C(=O)N1 (stereo not drawn) [Compound 15],> 0.3 µM,1.1 to 1.7 µM,,
COc1cc(Cl)ccc1NC(=O)CCc1ccc2c(c1)C(=O)N(C1CCC(=O)NC1=O)C2 (stereo not drawn) [Compound 16],> 0.3 µM,≤ 0.5 µM,< 1.1 µM,
O=C1CCC(N2Cc3ccc(CCC(=O)NC4CCCC4)cc3C2=O)C(=O)N1 (stereo not drawn) [Compound 17],> 0.3 µM,0.5 to 1.1 µM,< 1.1 µM,
